Reference: patent US7268128B2, “1,3,5-trisubstituted-5-phenyl and 5-pyridyl pyrazolopyrimidinone derivatives having PDE7 inhibiting action” (Ausbio Pharma Co., Ltd., priority 2001, dated 2007)
pIC50: −log10 of the molar value.

biological target: T1, PDE7 (type VII phosphodiesterase) (Homo sapiens, UniProt Q13946); experiment: PDE7 inhibiting activity (3H-cAMP hydrolysis, active fraction from MOLT-4 cells); type: biochemical; details: PDE7 fraction from MOLT-4 cells, 0.064 μM cAMP, 10 μM rolipram present, 2 hours at 25° C.; read-out: IC50 values for phosphodiesterase inhibiting activities (PDE7)
T1 construct: endogenous in cells; host or cells: MOLT-4 (ATCC CRL-1582), soluble fraction, HiTrapQ anion-exchange fraction
T1 sequence (Q13946 whole entry): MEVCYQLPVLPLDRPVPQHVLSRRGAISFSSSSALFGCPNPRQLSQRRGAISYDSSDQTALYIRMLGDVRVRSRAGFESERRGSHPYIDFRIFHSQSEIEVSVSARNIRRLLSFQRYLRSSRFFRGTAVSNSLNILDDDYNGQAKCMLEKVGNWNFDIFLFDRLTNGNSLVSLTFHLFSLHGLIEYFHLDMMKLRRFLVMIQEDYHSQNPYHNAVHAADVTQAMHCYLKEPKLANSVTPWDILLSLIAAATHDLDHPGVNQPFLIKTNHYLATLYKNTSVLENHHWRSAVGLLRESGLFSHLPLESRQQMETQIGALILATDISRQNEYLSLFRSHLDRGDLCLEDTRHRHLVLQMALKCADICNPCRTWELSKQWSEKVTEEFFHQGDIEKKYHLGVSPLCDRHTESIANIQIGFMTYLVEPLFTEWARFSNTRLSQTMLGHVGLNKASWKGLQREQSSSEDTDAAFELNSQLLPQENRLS
Outline: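 Read-out: supernatant radioactivity after twice-repeated QAE-Sephadex treatment of a 2 h, 25° C reaction (3H-cAMP at 0.064 μM cAMP, 10 μM rolipram, 5′-nucleotidase, 1 mM MgCl2, pH 7.5). Enzyme is an anion-exchange-purified fraction from MOLT-4 T cells. IC50 taken as half-maximal inhibition.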

Row | pIC50 | Compound
1 | ≥ 8.00 | COc1cc(N2CCNCC2)ccc1-c1nc2c(c(C3CCCCC3)nn2C)c(=O)[nH]1 [Example 60, 3-Cyclohexyl-6-[2-methoxy-4-(1-piperazinyl)phenyl]-1-methyl-1,5-dihydro-4H-pyrazolo[3,4-d]pyrimidin-4-one]
2 | ≥ 6.00 | COc1cc(S(=O)(=O)N2CCS(=O)(=O)CC2)ccc1-c1nc2c(c(C3CCCCC3)nn2C)c(=O)[nH]1 [Example 191, 3-Cyclohexyl-6-{4-[(1,1-dioxido-4-thiomorpholinyl)sulfonyl]-2-methoxyphenyl}-1-methyl-1,5-dihydro-4H-pyrazolo[3,4-d]pyrimidin-4-one]
3 | ≥ 8.00 | CNCCN(C)c1ccc(-c2nc3c(c(C4CCCCC4)nn3C)c(=O)[nH]2)c(OC)c1 [Example 84, 3-Cyclohexyl-6-(2-methoxy-4-{methyl[2-(methylamino)ethyl]amino}phenyl)-1-methyl-1,5-dihydro-4H-pyrazolo[3,4-d]pyrimidin-4-one monomethanesulfonate]
4 | ≥ 6.00 | COc1cc(N(C)S(C)(=O)=O)ccc1-c1nc2c(c(C3CCCCC3)nn2C)c(=O)[nH]1 [Example 147, N-[4-(3-cyclohexyl-1-methyl-4-oxo-4,5-dihydro-1H-pyrazolo[3,4-d]pyrimidin-6-yl)-3-methoxyphenyl]-N-methylmethanesulfonamide]
5 | ≥ 6.00 | CNC1CCN(S(=O)(=O)c2ccc(-c3nc4c(C)nn(C5CCCCC5)c4c(=O)[nH]3)c(OC)c2)CC1 [Example 222, 1-Cyclohexyl-5-(2-methoxy-4-{[4-(methylamino)-1-piperidinyl]sulfonyl}phenyl)-3-methyl-1,6-dihydro-7H-pyrazolo[4,3-d]pyrimidin-7-one]
6 | ≥ 8.00 | COc1cc(/C=C/C(=O)O)ccc1-c1nc2c(C)nn(C3CCCCC3)c2c(=O)[nH]1 [Example 227, (2E)-3-[4-(1-cyclohexyl-3-methyl-7-oxo-6,7-dihydro-1H-pyrazolo[4,3-d]pyrimidin-5-yl)-3-methoxyphenyl]-2-propenic acid]
7 | ≥ 6.00 | COc1cc(C(=O)NCC(=O)O)ccc1-c1nc2c(c(C3CCCCC3)nn2C)c(=O)[nH]1 [Example 72, {[4-(3-Cyclohexyl-1-methyl-4-oxo-4,5-dihydro-1H-pyrazolo[3,4-d]pyrimidin-6-yl)-3-methoxybenzoyl]amino}acetic acid]
8 | ≥ 6.00 | Cc1nn(C2CCCCC2)c2c(=O)[nH]c(-c3cc(Cl)ccn3)nc12 [Example 17, 5-(4-Chloro-2-pyridinyl)-1-cyclohexyl-3-methyl-1,6-dihydro-7H-pyrazolo[4,3-d]pyrimidin-7-one]
9 | ≥ 6.00 | COc1cc(S(=O)(=O)N2CCSCC2)ccc1-c1nc2c(c(C3CCCCC3)nn2C)c(=O)[nH]1 [Example 165, 3-Cyclohexyl-6-[2-methoxy-4-(4-thiomorpholinylsulfonyl)phenyl]-1-methyl-1,5-dihydro-4H-pyrazolo[3,4-d]pyrimidin-4-one]
10 | ≥ 6.00 | CCOc1ccccc1-c1nc2c(C)nn(C3CCCCC3)c2c(=O)[nH]1 [Example 13, 1-Cyclohexyl-5-(2-ethoxyphenyl)-3-methyl-1,6-dihydro-7H-pyrazolo[4,3-d]pyrimidin-7-one]
11 | ≥ 6.00 | COc1cc(NC2CCN(C(C)=O)CC2)ccc1-c1nc2c(C)nn(C3CCCCC3)c2c(=O)[nH]1 [Example 231, 5-{4-[(1-Acetyl-4-piperidinyl)amino]-2-methoxyphenyl}-1-cyclohexyl-3-methyl-1,6-dihydro-7H-pyrazolo[4,3-d]pyrimidin-7-one]
12 | ≥ 8.00 | COc1cc(N2CCCS2(=O)=O)ccc1-c1nc2c(c(C3CCCCC3)nn2C)c(=O)[nH]1 [Example 155, 3-Cyclohexyl-6-[4-(1,1-dioxido-2-isothiazolidinyl)-2-methoxyphenyl]-1-methyl-1,5-dihydro-4H-pyrazolo[3,4-d]pyrimidin-4-one]
13 | ≥ 6.00 | CNC1CCN(S(=O)(=O)c2ccc(-c3nc4c(c(C5CCCCC5)nn4C)c(=O)[nH]3)c(OC)c2)CC1 [Example 169, 3-Cyclohexyl-6-(2-methoxy-4-{[4-(methylamino)-1-piperidinyl]sulfonyl}phenyl)-1-methyl-1,5-dihydro-4H-pyrazolo[3,4-d]pyrimidin-4-one monomethanesulfonate]
14 | ≥ 6.00 | COc1cc(S(=O)(=O)N2CCN(CCO)CC2)ccc1-c1nc2c(C)nn(C3CCCCC3)c2c(=O)[nH]1 [Example 216, 1-Cyclohexyl-5-(4-{[4-(2-hydroxyethyl)-1-piperazinyl]sulfonyl}-2-methoxyphenyl)-3-methyl-1,6-dihydro-7H-pyrazolo[4,3-d]pyrimidin-7-one]
15 | ≥ 8.00 | CNC1CCN(c2ccc(-c3nc4c(C)nn(C5CCCCC5)c4c(=O)[nH]3)c(OC)c2)CC1 [Example 92, 1-Cyclohexyl-5-{2-methoxy-4-[4-(methylamino)-1-piperidinyl]phenyl}-3-methyl-1,6-dihydro-7H-pyrazolo[4,3-d]pyrimidin-7-one]
16 | ≥ 6.00 | COc1cc(C2=CCN(Cc3ccccc3)CC2)ccc1-c1nc2c(C)nn(C3CCCCC3)c2c(=O)[nH]1 [Example 272, 5-[4-(1-Benzyl-1,2,3,6-tetrahydro-4-pyridinyl)-2-methoxyphenyl]-1-cyclohexyl-3-methyl-1,6-dihydro-7H-pyrazolo[4,3-d]pyrimidin-7-one]

Row | pIC50 | Compound
17 | ≥ 8.00 | COc1cc(N2CCN(C)CC2)c(F)cc1-c1nc2c(c(C3CCCCC3)nn2C)c(=O)[nH]1 [Example 82, 3-Cyclohexyl-6-[5-fluoro-2-methoxy-4-(4-methyl-1-piperazinyl)phenyl]-1-methyl-1,5-dihydro-4H-pyrazolo[3,4-d]pyrimidin-4-one]
18 | ≥ 6.00 | Cc1nn(C2CCCCC2)c2c(=O)[nH]c(-c3ccc(N)cn3)nc12 [Example 11, 5-(5-Amino-2-pyridinyl)-1-cyclohexyl-3-methyl-1,6-dihydro-7H-pyrazolo[4,3-d]pyrimidin-7-one]
19 | ≥ 6.00 | Cc1nn(C2CCCCC2)c2c(=O)[nH]c(-c3ccc(N4CCN(C)CC4)cc3)nc12 [Example 7, 1-Cyclohexyl-3-methyl-5-[4-(4-methyl-1-piperazinyl)phenyl]-1,6-dihydro-7H-pyrazolo[4,3-d]pyrimidin-7-one]
20 | ≥ 8.00 | COc1cc(N2CCOC2=O)ccc1-c1nc2c(c(C3CCCCC3)nn2C)c(=O)[nH]1 [Example 143, 3-Cyclohexyl-6-[2-methoxy-4-(2-oxo-1,3-oxazolidin-3-yl)phenyl]-1-methyl-1,5-dihydro-4H-pyrazolo[3,4-d]pyrimidin-4-one]
21 | ≥ 6.00 | COc1cc(N2CCC(N(C)C=O)CC2)ccc1-c1nc2c(C)nn(C3CCCCC3)c2c(=O)[nH]1 [Example 118, 1-[4-(1-Cyclohexyl-3-methyl-7-oxo-6,7-dihydro-1H-pyrazolo[4,3-d]pyrimidin-5-yl)-3-methoxyphenyl]-4-piperidiny(methyl)formamide]
22 | ≥ 6.00 | COc1cc(N2CCN(C)CC2)ccc1-c1nc2c(C)nn(C3CCCCC3)c2c(=O)[nH]1 [Example 16, 1-Cyclohexyl-5-[2-methoxy-4-(4-methyl-1-piperazinyl)phenyl]-3-methyl-1,6-dihydro-7H-pyrazolo[4,3-d]pyrimidin-7-one]
23 | ≥ 6.00 | CCn1nc(C2CCCCC2)c2c(=O)[nH]c(-c3ccc(S(=O)(=O)N4CCCNCC4)cc3OC)nc21 [Example 209, 3-Cyclohexyl-6-[4-(1,4-diazepan-1-ylsulfonyl)-2-methoxyphenyl]-1-ethyl-1,5-dihydro-4H-pyrazolo[3,4-d]pyrimidin-4-one]
24 | ≥ 6.00 | COc1cc(N2CCC(O)CC2)ccc1-c1nc2c(C)nn(C3CCCCC3)c2c(=O)[nH]1 [Example 258, 1-Cyclohexyl-5-[4-(4-hydroxy-1-piperidinyl)-2-methoxyphenyl]-3-methyl-1,6-dihydro-7H-pyrazolo[4,3-d]pyrimidin-7-one]
25 | ≥ 6.00 | COc1cc(N2CCSCC2)ccc1-c1nc2c(c(C3CCCCC3)nn2C)c(=O)[nH]1 [Example 176, 3-Cyclohexyl-6-[2-methoxy-4-(4-thiomorpholinyl)phenyl]-1-methyl-1,5-dihydro-4H-pyrazolo[3,4-d]pyrimidin-4-one]
26 | ≥ 6.00 | COc1cc(NC2CCOCC2)ccc1-c1nc2c(C)nn(C3CCCCC3)c2c(=O)[nH]1 [Example 242, 1-Cyclohexyl-5-[2-methoxy-4-(tetrahydro-2H-pyran-4-ylamino)phenyl]-3-methyl-1,6-dihydro-7H-pyrazolo[4,3-d]pyrimidin-7-one]
27 | ≥ 8.00 | CCOc1cc(NCCOC)ccc1-c1nc2c(c(C3CCCCC3)nn2C)c(=O)[nH]1 [Example 117, 3-Cyclohexyl-6-{2-ethoxy-4-[(2-methoxyethyl)amino]phenyl}-1-methyl-1,5-dihydro-4H-pyrazolo[3,4-d]pyrimidin-4-one]
28 | ≥ 6.00 | COc1ccccc1-c1nc2c(c(C3CCCCC3)nn2C)c(=O)[nH]1 [Example 24, 3-Cyclohexyl-6-(2-methoxyphenyl)-1-methyl-1,5-dihydro-4H-pyrazolo[3,4-d]pyrimidin-4-one]
29 | ≥ 8.00 | COc1cc(N2CCNC2=O)ccc1-c1nc2c(c(C3CCCCC3)nn2C)c(=O)[nH]1 [Example 144, 3-Cyclohexyl-6-[2-methoxy-4-(2-oxo-1-imidazolidinyl)phenyl]-1-methyl-1,5-dihydro-4H-pyrazolo[3,4-d]pyrimidin-4-one]
30 | ≥ 6.00 | COCCOc1ccc(-c2nc3c(c(C4CCCCC4)nn3C)c(=O)[nH]2)c(OC)c1 [Example 34, 3-Cyclohexyl-6-[2-methoxy-4-(2-methoxyethoxy)phenyl]-1-methyl-1,5-dihydro-4H-pyrazolo[3,4-d]pyrimidin-4-one]
31 | ≥ 8.00 | CNCCCN(C)c1ccc(-c2nc3c(C)nn(C4CCCCC4)c3c(=O)[nH]2)c(OC)c1 [Example 111, 1-Cyclohexyl-5-(2-methoxy-4-{methyl[3-(methylamino)propyl]amino}phenyl)-3-methyl-1,6-dihydro-7H-pyrazolo[4,3-d]pyrimidin-7-one monofumarate]
